# Laboratory results: patent publication US8859573B2, “Pyrimidinone and pyridinone compounds for use in the treatment of diseases or conditions mediated by Lp-PLA2” (Glaxo Group Limited, priority 2010, dated 2014)
# Where a name gives a salt, the structure may show the parent alone.
# What was measured:
# [1] = target: T1, recombinant human Lp-PLA2 (Homo sapiens, UniProt Q13093); test: Recombinant human Lp-PLA2 assay (rhLp-PLA2, PED6 assay); assay type: biochemical; settings: upper limit for pIC50 in this assay is 9.3
# T1 sequence (Q13093 22-441): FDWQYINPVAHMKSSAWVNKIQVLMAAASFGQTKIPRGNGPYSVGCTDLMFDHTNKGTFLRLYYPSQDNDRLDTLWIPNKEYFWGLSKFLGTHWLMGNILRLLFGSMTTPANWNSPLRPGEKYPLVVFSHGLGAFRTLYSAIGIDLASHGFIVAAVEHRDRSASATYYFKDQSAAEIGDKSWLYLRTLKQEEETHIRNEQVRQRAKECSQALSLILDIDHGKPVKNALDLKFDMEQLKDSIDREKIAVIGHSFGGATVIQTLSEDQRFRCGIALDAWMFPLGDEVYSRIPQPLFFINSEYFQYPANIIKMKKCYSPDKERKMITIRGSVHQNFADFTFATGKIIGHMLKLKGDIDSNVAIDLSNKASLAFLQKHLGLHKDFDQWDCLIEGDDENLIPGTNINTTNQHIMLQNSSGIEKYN
# Source text: (1) Recombinant Human Lp-PLA2 Assay (rhLp-PLA2) (Also Referred to as “PED6” Assay)
# N-((6-(2,4-dinitrophenyl)amino)-hexanoyl)-2-(4,4-difluoro-5,7-dimethyl-4-bora-3a,4a-diaza-s-indacene-3-pentanoyl)-1-hexadecanoyl-sn-glycero-3-phosphoethanolamine, triethylammonium salt (PED6) is a commercially available fluorescently-labelled phospholipid, which is commercially available from Molecular Probes. There is a quenching para-nitro phenyl (PNP) group in the sn3 position and a Bodipy fluorescein (FL) group in the sn2 position. Upon cleavage with Lp-PLA2, the Bodipy F1 group is liberated and then may result in an increase in fluorescence. Inhibitors of Lp-PLA2 therefore prevent this cleavage and no fluorescent increase is observed.
# The PED6 assay was run as an […] 10 μL assay. Compounds source plate was prepared by making 1:3 (by volume) serial dilution of the compounds into pure DMSO on 384-well microplate. Then, 0.01 μL of compounds on compound source plate were transferred into 384 well Greiner 784076 (black) plates by ECHO liquid dispenser. 5 μL of recombinant human Lp-PLA2 enzyme (2 nM rhLp-PLA2 in assay buffer of 50 mM HEPES, pH7.4, 150 mM NaCl, 1 mM CHAPS) was added to each well of the plate with compounds. Plates were centrifuged for 10 sec at 500 rpm. After 30 minutes preincubation, […] substrate (4 μM PED6 [from 5 mM DMSO stock] in assay buffer of 50 mM HEPES, pH7.4, 150 mM NaCl, 1 mM CHAPS) was added to 384 well Greiner 784076 (black) plates. Plates were centrifuged for 10 sec at 500 rpm. Plate was covered to protect from light and incubated for 20 min at room temperature. Plates were read for fluorescence intensity at ex: 480/em: 540 using ViewLux microplate imager. PIC50 data, curve and QC analysis was conducted by using XL fit module in Excel.
# [2] = target: T2, Lp-PLA2 from plasma (Homo sapiens, UniProt Q13093); test: Lp-PLA2 human plasma assay (Thio-PAF assay); assay type: biochemical; settings: pooled human plasma; read-out: pIC50 values in the thio-PAF assay (converted)
# T2 construct: from tissue; host or cells: pooled human plasma
# T2 sequence (Q13093 22-441): T1 sequence (Q13093 22-441)
# Source text: (3) Lipoprotein-Associated Phospholipase A2 (Lp-PLA2) Human Plasma Assay (Also Referred to as “Thio-PAF Assay”)
# The human plasma assay utilizes a thioester analog of PAF (phosphatidylcholine), where hydrolysis yields to the formation of a phospholipid containing a free thiol group. The amount of thiol is quantitated continuously by reacting with CPM (7-diethylamino-3-(4′-maleimidylphenyl)-4-methylcoumarin), a maleimide which increases in fluoresence after Michael addition of thiols. This assay may detect the activity of Lp-PLA2 from plasma, as determined by specific inhibition by Lp-PLA2 inhibitors.
# The thio-PAF assay was run as a quenched 15 μL assay. Compounds source plate was prepared by making 1:3 (by volume) serial dilution of the compounds into pure DMSO on 384-well microplate. 0.01 μL of compounds on compound source plate were transferred to 384 well Greiner 784076 (black) low-volume plates by ECHO liquid dispenser. 8 μL pooled human plasma, which was previously aliquoted and frozen, was added. Plates were centrifuged for 10 sec at 500 rpm. After 30 minutes preincubation, 2 μL of substrate (2.5 mM thio-PAF, 3.2 mM NEM (N-ethylmaleimide) [made fresh daily in DMSO], and 32 μM CPM [from a DMSO stock] in assay buffer of 50 mM HEPES, pH7.4, 150 mM NaCl, 1 mM CHAPS was added to 384 well Greiner 784076 (black) low-volume plates by BRAVO liquid handling station. Plates were centrifuged for 10 sec at 500 rpm. Plate was covered to protect from light and incubated for 2 min at room temperature. Reaction was quenched with 5 μL of 5% aqueous trifluoroacetic acid (TFA). Plates were covered to protect from light and incubated for 40 min at room temperature. Plates were read at ex: 380/em: 485 using-Envision microplate reader. PIC50 data, curve and QC analysis was conducted by using XLFit module in Excel.
IC50 [1] [nM],IC50 [2] [nM],SMILES
≤ 1,≤ 100,"N#Cc1cc(COc2ccn(Cc3cccnc3)c(=O)n2)ccc1Oc1ccc(Cl)c(C(F)(F)F)c1 [Example 4, 2-(4-Chloro-3-(trifluoromethyl)phenoxy)-5-(((2-oxo-1-(pyridin-3-ylmethyl)-1,2-dihydropyrimidin-4-yl)oxy)methyl)benzonitrile]"
≤ 1,≤ 1000,"CCn1ccc(OCc2ccc(Oc3ccc(Cl)c(C(F)(F)F)c3)c(C#N)c2)nc1=O [Example 5, 2-{[4-Chloro-3-(trifluoromethyl)phenyl]oxy}-5-{[(1-ethyl-2-oxo-1,2-dihydro-4-pyrimidinyl)oxy]methyl}benzonitrile]"
≤ 1,≤ 100,"Cn1cc(Cn2ccc(OCc3ccc(Oc4ccc(Cl)c(C(F)(F)F)c4)cc3)nc2=O)cn1 [Example 8, 4-{[(4-{[4-Chloro-3-(trifluoromethyl)phenyl]oxy}phenyl)methyl]oxy}-1-[(1-methyl-1H-pyrazol-4-yl)methyl]-2(1H)-pyrimidinone]"
≤ 1,≤ 100,"O=c1nc(OCCc2ccc(Oc3ccc(Cl)c(C(F)(F)F)c3)cc2)ccn1Cc1ccncc1 [Example 9, 4-{[2-(4-{[4-Chloro-3-(trifluoromethyl)phenyl]oxy}phenyl)ethyl]oxy}-1-(4-pyridinylmethyl)-2(1H)-pyrimidinone]"
≤ 1,≤ 100,"O=c1nc(OCCc2ccc(Oc3ccc(Cl)c(C(F)(F)F)c3)cc2)ccn1Cc1cccnc1 [Example 10, 4-{[2-(4-{[4-Chloro-3-(trifluoromethyl)phenyl]oxy}phenyl)ethyl]oxy}-1-(3-pyridinylmethyl)-2(1H)-pyrimidinone]"
≤ 1,≤ 100,"O=c1nc(OCCc2ccc(Oc3ccc(Cl)c(C(F)(F)F)c3)cc2)ccn1Cc1cncnc1 [Example 11, 4-{[2-(4-{[4-Chloro-3-(trifluoromethyl)phenyl]oxy}phenyl)ethyl]oxy}-1-(5-pyrimidinylmethyl)-2(1H)-pyrimidinone]"
≤ 1,≤ 100,"Cn1cc(Cn2ccc(OCCc3ccc(Oc4ccc(Cl)c(C(F)(F)F)c4)cc3)nc2=O)cn1 [Example 12, 4-{[2-(4-{[4-Chloro-3-(trifluoromethyl)phenyl]oxy}phenyl)ethyl]oxy}-1-[(1-methyl-1H-pyrazol-4-yl)methyl]-2(1H)-pyrimidinone]"
≤ 1,≤ 100,"Cn1cc(Cn2ccc(OCc3cnc(Oc4ccc(Cl)c(C(F)(F)F)c4)c(F)c3)nc2=O)cn1 [Example 17, 4-{[(6-{[4-Chloro-3-(trifluoromethyl)phenyl]oxy}-5-fluoro-3-pyridinyl)methyl]oxy}-1-[(1-methyl-1H-pyrazol-4-yl)methyl]-2 (1H)-pyrimidinone]"
≤ 1,≤ 100,"Cn1cc(Cn2ccc(OCCc3cnc(Oc4ccc(Cl)c(C(F)(F)F)c4)c(F)c3)nc2=O)cn1 [Example 18, 4-{[2-(6-{[4-Chloro-3-(trifluoromethyl)phenyl]oxy}-5-fluoro-3-pyridinyl)ethyl]oxy}-1-[(1-methyl-1H-pyrazol-4-yl)methyl]-2(1H)-pyrimidinone]"
> 10,> 10000,"CCn1ccc(OCc2ccc(Oc3ccc(Cl)c(C(F)(F)F)c3)cc2)cc1=O [Example 23, 4-{[(4-{[4-Chloro-3-(trifluoromethyl)phenyl]oxy}phenyl)methyl]oxy}-1-ethyl-2(1H)-pyridinone]"
> 10,–,"Cn1cc(Cn2ccc(OCc3ccc(Oc4cccc(C(F)(F)F)c4)cc3)cc2=O)cn1 [Example 25, 1-[(1-Methyl-1H-pyrazol-4-yl)methyl]-4-{[(4-{[3-(trifluoromethyl)phenyl]oxy}-phenyl)methyl]oxy}-2(1H)-pyridinone]"
> 10,–,"O=c1cc(OCc2ccc(Oc3ccc(Cl)c(C(F)(F)F)c3)cc2)ccn1Cc1cncnc1 [Example 26, 4-{[(4-{[4-Chloro-3-(trifluoromethyl)phenyl]oxy}phenyl)methyl]oxy}-1-(5-pyrimidinylmethyl)-2(1H)-pyridinone]"
> 10,–,"Cc1ccc(Oc2ccc(COc3ccn(Cc4cnn(C)c4)c(=O)c3)cc2)cc1F [Example 28, 4-[({4-[(3-Fluoro-4-methylphenyl)oxy]phenyl}methyl)oxy]-1-[(1-methyl-1H-pyrazol-4-yl)methyl]-2(1H)-pyridinone]"
≤ 1,≤ 100,"Cn1cc(Cn2cc(Cl)c(OCCc3cnc(Oc4ccc(Cl)c(C(F)(F)F)c4)c(F)c3)nc2=O)cn1 [Example 31, 5-Chloro-4-(2-(6-(4-chloro-3-(trifluoromethyl)phenoxy)-5-fluoropyridin-3-yl)ethoxy)-1-((1-methyl-1H-pyrazol-4-yl)methyl)pyrimidin-2(1H)-one]"
≤ 1,≤ 100,"COc1ncc(Cn2cc(Cl)c(OCCc3cnc(Oc4ccc(Cl)c(C(F)(F)F)c4)c(F)c3)nc2=O)cn1 [Example 32, 5-chloro-4-(2-(6-(4-chloro-3-(trifluoromethyl)phenoxy)-5-fluoropyridin-3-yl)ethoxy)-1-((2-methoxypyrimidin-5-yl)methyl)pyrimidin-2(1H)-one]"
–,≤ 100,"Cn1cc(Cn2cc(F)c(OCCc3ccc(Oc4ccc(Cl)c(C(F)(F)F)c4)cn3)nc2=O)cn1 [Example 55, 4-(2-(5-(4-chloro-3-(trifluoromethyl)phenoxy)pyridin-2-yl)ethoxy)-5-fluoro-1-((1-methyl-1H-pyrazol-4-yl)methyl)pyrimidin-2(1H)-one]"
> 10,–,"Cc1cccc(Oc2ccc(CCOc3nc(=O)n(Cc4cnn(C)c4)cc3F)cc2)n1 [Example 61, 5-fluoro-1-((1-methyl-1H-pyrazol-4-yl)methyl)-4-(4-((6-methylpyridin-2-yl)oxy)phenethoxy)pyrimidin-2(1H)-one]"
> 10,–,"COc1ncc(Cn2cc(F)c(OCCc3ccc(Oc4cccc(C)n4)cc3)nc2=O)cn1 [Example 62, 5-fluoro-1-((2-methoxypyrimidin-5-yl)methyl)-4-(4-((6-methylpyridin-2-yl)oxy)phenethoxy)pyrimidin-2(1H)-one]"
> 10,–,"CCn1cc(F)c(OCCc2ccc(Oc3cccc(C(F)(F)F)n3)cc2)nc1=O [Example 63, 1-ethyl-5-fluoro-4-(4-((6-(trifluoromethyl)pyridin-2-yl)oxy)phenethoxy)pyrimidin-2(1H)-one, trifluoroacetic acid salt]"
–,≤ 1000,"Cn1cc(Cn2cc(F)c(OCCc3ccc(Oc4cccc(C(F)(F)F)n4)cc3)nc2=O)cn1 [Example 64, 5-fluoro-1-((1-methyl-1H-pyrazol-4-yl)methyl)-4-(4-((6-(trifluoromethyl)pyridin-2-yl)oxy)phenethoxy)pyrimidin-2(1H)-one]"
–,≤ 1000,"COc1ncc(Cn2cc(F)c(OCCc3ccc(Oc4cccc(C(F)(F)F)n4)cc3)nc2=O)cn1 [Example 65, 5-fluoro-1-((2-methoxypyrimidin-5-yl)methyl)-4-(4-((6-(trifluoromethyl)pyridin-2-yl)oxy)phenethoxy)pyrimidin-2(1H)-one]"
